US10800754B2, “Heterocyclic amide compound” (TAKEDA PHARMACEUTICAL COMPANY LIMITED, priority 2016, dated 2020)

Tests used:
[1] = target: T1, human PRS protein (Homo sapiens, UniProt P07814); assay: PRS inhibitory activity (ATP/[32P]pyrophosphate exchange enzyme reaction); assay type: biochemical; details: 300 nM test compound; recombinant human PRS (EPRS 998-1512); read-out: inhibitory rate (%) of PRS
T1 construct: to construct His-Avi-hEPRS (998-1512) expression plasmid; His tag (N); Avi tag (N); TEV cleavage site (ENLYFQ/GS, encoded by forward primer hEPRS-TEV-NheF) (N); made in house; host or cells: E. coli BL21(DE3)
T1 sequence (P07814 998-1512): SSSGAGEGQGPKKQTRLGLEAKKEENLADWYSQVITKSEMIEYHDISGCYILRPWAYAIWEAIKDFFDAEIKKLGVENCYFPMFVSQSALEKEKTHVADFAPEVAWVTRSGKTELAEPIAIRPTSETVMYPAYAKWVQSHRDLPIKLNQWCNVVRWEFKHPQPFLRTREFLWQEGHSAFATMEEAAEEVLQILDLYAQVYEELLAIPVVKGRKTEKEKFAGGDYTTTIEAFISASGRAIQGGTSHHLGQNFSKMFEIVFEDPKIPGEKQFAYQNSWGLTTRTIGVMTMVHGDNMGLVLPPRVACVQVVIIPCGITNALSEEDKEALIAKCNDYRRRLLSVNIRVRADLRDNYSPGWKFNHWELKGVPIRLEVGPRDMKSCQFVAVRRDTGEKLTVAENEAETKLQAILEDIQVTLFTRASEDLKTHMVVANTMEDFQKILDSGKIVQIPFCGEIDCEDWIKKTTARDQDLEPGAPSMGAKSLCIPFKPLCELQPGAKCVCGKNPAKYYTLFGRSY
Description: The PRS inhibitory activity of the compounds of the present invention was evaluated by the following method.
An expression plasmid of Catalytic Domain of human EPRS was obtained by PCR using human skeletal muscle cDNA Library (Takara Bio Inc.) as a template and 2 kinds of Primers 5′-[…]-3′ (hEPRS-TEV-NheF) (SEQ ID NO: 1) and 5′-[…]-3′ (hEPRS-St-Not-R) (SEQ ID NO: 2). PCR was performed using PrimeStar GXL DNA Polymerase (Takara Bio Inc.) and included (1) 98° C., 1 min, (2) cycles of 98° C., 10 sec, 65° C., 10 sec, 72° C., 1 min, and (3) reaction at 72° C., 1 min. This was cleaved with Nhe I and Not I (Takara Bio Inc.) and inserted using Ligation High (TOYOBO CO., LTD.) into the Nhe I/Not I site of pET21a (Novagen) with His-Avitag inserted thereinto. This was introduced into ECOS JM109 (NIPPON GENE CO., LTD.) to construct His-Avi-hEPRS (998-1512) expression plasmid.
Recombinant human PRS protein was prepared by transforming the His-Avi-hEPRS (998-1512) expression plasmid prepared above into ECOS Competent E. coli BL21(DE3) (NIPPON GENE CO., LTD.). Escherichia coli obtained by transformation was inoculated into 300 mL of LB medium (1% peptone, 0.5% yeast extract, 0.5% sodium chloride, 0.01% ampicillin) and cultured at 30° C. for 16 hr. The obtained culture medium was transferred into a jar culture tank charged with 6 L of the main fermentation medium (0.3% potassium dihydrogen phosphate, 0.6% disodium hydrogen phosphate, 0.1% ammonium chloride, 0.05% sodium chloride, 0.024% magnesium sulfate, 0.02% NEWPOL LB-625, 1.5% sorbitol, 1.5% casamino acid, 0.5% yeast extract, 0.01% ampicillin) and culturing was started at 37° C., quantity of airflow 5 L/min, stirring rotating speed 400 rpm. At the time point when the turbidity of the culture medium reached about 550 Klett units, the culture temperature was lowered to 16° C., isopropyl-β-D-thiogalactopyranoside (IPTG) was added to the final concentration 0.1 mM, and culturing was performed for another 16 hr to induce expression of human PRS. After completion of culturing, the culture medium was centrifuged at 5,000 rpm for 10 min. The obtained human PRS expressing Escherichia coli was suspended in a buffer containing 50 mM Tris-HCl (pH 8.0), 150 mM NaCl, 1 mM DTT, 5 U/ml Benzonase, 20 mM Imidazole and sonicated using Sonifier (BRANSON). The homogenate was centrifuged (33,000×G, 60 min, Beckman Coulter), the obtained supernatant was subjected to adsorption by passage through Ni-NTA Superflow (QIAGEN) column equilibrated in advance with 50 mM Tris-HCl (pH 8.0), 300 mM NaCl, 1 mM DTT, and elution was performed with a buffer containing 50 mM Tris-HCl (pH 8.0), 300 mM NaCl, 1 mM DTT, 250 mM Imidazole. Furthermore, gel filtration was performed using […] equilibrated in advance with a buffer containing 50 mM Tris-HCl (pH 8.0), 150 mM NaCl, 1 mM DTT, 10% glycerol to give purified human PRS protein. The protein concentration was measured using BCA Protein Assay Kit (PIERCE) and BSA as the standard.
A test compound was dissolved in 5 μL of an assay buffer (50 mM Tris-HCl (pH 7.5), 20 mM KCl, 1 mM DTT, 0.01% Tween 20) and incubated for 60 min with 5 μL of 40 nM human PRS protein dissolved in the assay buffer containing 40 mM MgCl2. An enzyme reaction of the human PRS protein was started by adding 10 μL of a substrate solution containing 300 μM ATP, 160 μM L-Proline, 400 μM pyrophosphate, [^32P]pyrophosphate (PerkinElmer, Waltham, Mass.) prepared to 1 MBq/mL. After incubation at room temperature for 30 min, the reaction was discontinued by adding 50 μL of discontinuation/washing solution (1M HCl, 200 mM sodium pyrophosphate) to the reaction mixture. The reaction solution was transferred to a filter plate (Merck Millipore, Billerica, Mass.) previously added with 200 μL of charcoal solution (0.5% HCl solution containing 10% charcoal (w/v)). […]

[2] = tested on: human ovarian cancer cell A2780; assay: proliferation inhibitory activity against A2780 cells (CellTiter-Glo); assay type: cell-based; details: A2780, 72 h, 1 μM test compound, 3 days of culture, read-out: proliferation inhibitory rate (%) of A2780 cells
Description: The proliferation inhibitory activity of the compound of the present invention against human ovarian cancer cell A2780 was evaluated by the following method.
Human ovarian cancer cells A2780 were seeded in a 384 well culture plate at 1000 cells in 30 μL of medium per well by using RPMI-1640 medium (Wako Pure Chemical Industries, Ltd.) containing 10% fetal bovine serum and penicillin/streptomycin. The next day, 10 μL of RPMI-1640 medium containing the test compound was added to the cells. After 3 days of culture, 20 μL of CellTiter-Glo Luminescent Cell Viability Assay solution (Promega, Fitchburg, Wis., US) was added. The luminescence signal was measured using EnVision (PerkinElmer, Waltham, Mass., US) and the inhibitory rate (%) of the test compound was calculated with a well free of seeding of cell as 100% inhibition.

inhibition at 0.3 µM [1] [%]	Compound	inhibition at 1 µM [2] [%]
100	Cn1cc(-c2cccc(CC(=O)Nc3cc(N4CC[C@@](C#N)(C5CC5)C4=O)ccn3)c2)cn1 [Example 26, N-(4-((3S)-3-cyano-3-cyclopropyl-2-oxopyrrolidin-1-yl)pyridin-2-yl)-2-(3-(1-methyl-1H-pyrazol-4-yl)phenyl)acetamide]	92
97	N#C[C@@]1(C2CC2)CCN(c2ccnc(NC(=O)Cc3cccc(-c4ccncc4)c3)c2)C1=O [Example 29, N-(4-((3S)-3-cyano-3-cyclopropyl-2-oxopyrrolidin-1-yl)pyridin-2-yl)-2-(3-(pyridin-4-yl)phenyl)acetamide]	60
99	CCn1cc(-c2cccc(CC(=O)Nc3cc(N4CC[C@@](C#N)(C5CC5)C4=O)ccn3)c2)cn1 [Example 37, N-(4-((3S)-3-cyano-3-cyclopropyl-2-oxopyrrolidin-1-yl)pyridin-2-yl)-2-(3-(1-ethyl-1H-pyrazol-4-yl)phenyl)acetamide]	90
100	N#C[C@@]1(C2CC2)CCN(c2ccnc(NC(=O)Cc3cccc(-c4cnn(CC(F)F)c4)c3)c2)C1=O [Example 38, N-(4-((3S)-3-cyano-3-cyclopropyl-2-oxopyrrolidin-1-yl)pyridin-2-yl)-2-(3-(1-(2,2-difluoroethyl)-1H-pyrazol-4-yl)phenyl)acetamide]	88
100	N#C[C@@]1(C2CC2)CCN(c2ccnc(NC(=O)Cc3cccc(-c4cnn(C5CC5)c4)c3)c2)C1=O [Example 42, N-(4-((3S)-3-cyano-3-cyclopropyl-2-oxopyrrolidin-1-yl)pyridin-2-yl)-2-(3-(1-cyclopropyl-1H-pyrazol-4-yl)phenyl)acetamide]	84
100	N#C[C@@]1(C2CC2)CCN(c2ccnc(NC(=O)Cc3cccc(-c4cnn(C(F)F)c4)c3)c2)C1=O [Example 44, N-(4-((3S)-3-cyano-3-cyclopropyl-2-oxopyrrolidin-1-yl)pyridin-2-yl)-2-(3-(1-(difluoromethyl)-1H-pyrazol-4-yl)phenyl)acetamide]	86

More lines, now with the values behind:

Compound	inhibition at 0.3 µM [1] [%]	inhibition at 1 µM [2] [%]
Cc1cc(N2CC[C@@](C#N)(C3CC3)C2=O)cc(NC(=O)Cc2ccccc2)n1 [Example 20, N-(4-((3S)-3-cyano-3-cyclopropyl-2-oxopyrrolidin-1-yl)-6-methylpyridin-2-yl)-2-phenylacetamide]	94	63
Cc1cc(N2CC[C@@](C#N)(C3CC3)C2=O)cc(NC(=O)Cc2cccc3ccccc23)n1 [Example 27, N-(4-((3S)-3-cyano-3-cyclopropyl-2-oxopyrrolidin-1-yl)-6-methylpyridin-2-yl)-2-(1-naphthyl)acetamide]	97	74
Cc1cc(N2CC[C@@](C#N)(C3CC3)C2=O)cc(NC(=O)Cc2cccc(-c3cnn(C)c3)c2)n1 [Example 30, N-(4-((3S)-3-cyano-3-cyclopropyl-2-oxopyrrolidin-1-yl)-6-methylpyridin-2-yl)-2-(3-(1-methyl-1H-pyrazol-4-yl)phenyl)acetamide]	99	99
Cn1cc(-c2cc(F)cc(CC(=O)Nc3cc(N4CC[C@@](C#N)(C5CC5)C4=O)ccn3)c2)cn1 [Example 35, N-(4-((3S)-3-cyano-3-cyclopropyl-2-oxopyrrolidin-1-yl)pyridin-2-yl)-2-(3-fluoro-5-(1-methyl-1H-pyrazol-4-yl)phenyl)acetamide]	102	97
Cn1cc(-c2cccc(CC(=O)Nc3cc(N4CC[C@@](C#N)(C5CC5)C4=O)ccn3)c2)ccc1=O [Example 41, N-(4-((3S)-3-cyano-3-cyclopropyl-2-oxopyrrolidin-1-yl)pyridin-2-yl)-2-(3-(1-methyl-6-oxo-1,6-dihydropyridin-3-yl)phenyl)acetamide]	101	72
Cc1ncc(-c2cccc(CC(=O)Nc3cc(N4CC[C@@](C#N)(C5CC5)C4=O)ccn3)c2)s1 [Example 45, N-(4-((3S)-3-cyano-3-cyclopropyl-2-oxopyrrolidin-1-yl)pyridin-2-yl)-2-(3-(2-methyl-1,3-thiazol-5-yl)phenyl)acetamide]	97	76
Cn1cc(-c2cccc(CC(=O)Nc3cc(N4CC[C@@](C#N)(C5CC5)C4=O)ccn3)c2)nn1 [Example 47, N-(4-((3S)-3-cyano-3-cyclopropyl-2-oxopyrrolidin-1-yl)pyridin-2-yl)-2-(3-(1-methyl-1H-1,2,3-triazol-4-yl)phenyl)acetamide]	99	66
N#C[C@@]1(C2CC2)CCN(c2ccnc(NC(=O)Cc3cccc(Cl)c3)n2)C1=O [Example 129, 2-(3-chlorophenyl)-N-(4-((3S)-3-cyano-3-cyclopropyl-2-oxopyrrolidin-1-yl)pyrimidin-2-yl)acetamide]	87	–
N#C[C@@]1(C2CC2)CCN(c2ccnc(NC(=O)Cc3ccc(Cl)s3)n2)C1=O [Example 130, 2-(5-chloro-2-thienyl)-N-(4-((3S)-3-cyano-3-cyclopropyl-2-oxopyrrolidin-1-yl)pyrimidin-2-yl)acetamide]	84	–
Cc1cc(N2CC[C@@](C#N)(C3CC3)C2=O)nc(NC(=O)Cc2ccccc2)n1 [Example 131, N-(4-((3S)-3-cyano-3-cyclopropyl-2-oxopyrrolidin-1-yl)-6-methylpyrimidin-2-yl)-2-phenylacetamide]	89	–
